The source of these data is PubChem BioAssay (NCI).

Each structure is given as a SMILES string.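 Cultured in 96-well plates, cells were exposed to test compound for 48 hours across five concentrations. TGI: total growth inhibition.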

The subject of one experiment is HCT-15 colon. In words: NCI-60 cell line screen, 48 h.
Take `CCOC(=O)c1ccc(N2C(=S)N(C(=O)c3ccccc3)C(=Nc3ccccc3)C2=Nc2ccccc2)cc1`: the TGI was > 100 µM.
As to `NP(=O)(OCC1=CC(=O)c2ccccc2C1=O)N(CCBr)CCBr` (stereo not drawn), the TGI turned out to be 20.1 µM.

For a further experiment, the system named is UACC-62 melanoma. In words: NCI-60 cell line screen, 48 h.
As to `COC(=O)[C@@H]1CCCN1CCN1CCC[C@H]1C(=O)OC`, the TGI is > 100 µM.
For `CCOc1ccc(-c2nc(-c3oc4ccccc4c(=O)c3OC(C)=O)cs2)cc1`, the TGI is > 10 µM.
On to `CCOC(=O)c1ccc(N2C(=S)N(C(=O)c3ccccc3)C(=Nc3ccccc3)C2=Nc2ccccc2)cc1`, for which the TGI was > 100 µM.
Consider `NP(=O)(OCC1=CC(=O)c2ccccc2C1=O)N(CCBr)CCBr` (stereo not drawn), for which the TGI amounted to 5.3 µM.

In a further experiment the test system is NCI/ADR-RES ovarian. In words: NCI-60 cell line screen, 48 h.
Regarding `COC(=O)[C@@H]1CCCN1CCN1CCC[C@H]1C(=O)OC`, the TGI is > 100 µM.
Take `CCOC(=O)c1ccc(N2C(=S)N(C(=O)c3ccccc3)C(=Nc3ccccc3)C2=Nc2ccccc2)cc1`: the TGI is > 100 µM.
Still for that read-out and setting: for `NP(=O)(OCC1=CC(=O)c2ccccc2C1=O)N(CCBr)CCBr` (stereo not drawn) the value was > 73.4 µM.

For the next experiment, the system named is MDA-N. In words: NCI-60 cell line screen, 48 h.
For the compound `COC(=O)[C@@H]1CCCN1CCN1CCC[C@H]1C(=O)OC`, the TGI is > 100 µM.
On the same count and under the same terms, the same measure for `CCOc1ccc(-c2nc(-c3oc4ccccc4c(=O)c3OC(C)=O)cs2)cc1`: > 10 µM.
Same read-out and setting: the same measure for `CCOC(=O)c1ccc(N2C(=S)N(C(=O)c3ccccc3)C(=Nc3ccccc3)C2=Nc2ccccc2)cc1`: > 100 µM; for `NP(=O)(OCC1=CC(=O)c2ccccc2C1=O)N(CCBr)CCBr` (stereo not drawn): 3.66 µM.

A further experiment concerns SF-539 CNS. Kind of experiment: NCI-60 cell line screen, 48 h.
On to `COC(=O)[C@@H]1CCCN1CCN1CCC[C@H]1C(=O)OC`, for which the TGI is > 100 µM.
As for `CCOC(=O)c1ccc(N2C(=S)N(C(=O)c3ccccc3)C(=Nc3ccccc3)C2=Nc2ccccc2)cc1`, the TGI is > 100 µM.
`NP(=O)(OCC1=CC(=O)c2ccccc2C1=O)N(CCBr)CCBr` (stereo not drawn) returned a TGI of 18.7 µM.

The next experiment concerns SK-MEL-2 melanoma. In words: NCI-60 cell line screen, 48 h.
`COC(=O)[C@@H]1CCCN1CCN1CCC[C@H]1C(=O)OC`: the TGI is > 100 µM.
With `CCOC(=O)c1ccc(N2C(=S)N(C(=O)c3ccccc3)C(=Nc3ccccc3)C2=Nc2ccccc2)cc1`, the TGI was > 100 µM.
The compound `NP(=O)(OCC1=CC(=O)c2ccccc2C1=O)N(CCBr)CCBr` (stereo not drawn) came in with a TGI of 25.3 µM.

In a further experiment the test system is M14 melanoma. In words: NCI-60 cell line screen, 48 h.
For `COC(=O)[C@@H]1CCCN1CCN1CCC[C@H]1C(=O)OC`, the TGI was > 100 µM.
`CCOc1ccc(-c2nc(-c3oc4ccccc4c(=O)c3OC(C)=O)cs2)cc1`: the TGI is > 10 µM.
In the case of `CCOC(=O)c1ccc(N2C(=S)N(C(=O)c3ccccc3)C(=Nc3ccccc3)C2=Nc2ccccc2)cc1`, the TGI is > 100 µM.

The next experiment has as its system EKVX NSCLC. In words: NCI-60 cell line screen, 48 h.
For `CCOc1ccc(-c2nc(-c3oc4ccccc4c(=O)c3OC(C)=O)cs2)cc1`, the TGI is > 10 µM.
For `CCOC(=O)c1ccc(N2C(=S)N(C(=O)c3ccccc3)C(=Nc3ccccc3)C2=Nc2ccccc2)cc1`, the TGI was > 100 µM.
In turn, `NP(=O)(OCC1=CC(=O)c2ccccc2C1=O)N(CCBr)CCBr` (stereo not drawn) registered a TGI of 34.6 µM.

For another experiment, the system named is SN12C renal. Kind of experiment: NCI-60 cell line screen, 48 h.
`COC(=O)[C@@H]1CCCN1CCN1CCC[C@H]1C(=O)OC`: the TGI was > 100 µM.
For `CCOc1ccc(-c2nc(-c3oc4ccccc4c(=O)c3OC(C)=O)cs2)cc1`, the TGI is > 10 µM.
Consider `CCOC(=O)c1ccc(N2C(=S)N(C(=O)c3ccccc3)C(=Nc3ccccc3)C2=Nc2ccccc2)cc1`, for which the TGI is > 100 µM.
As for `NP(=O)(OCC1=CC(=O)c2ccccc2C1=O)N(CCBr)CCBr` (stereo not drawn), the TGI amounted to 33.9 µM.

A further experiment deals with RXF 393 renal. In words: NCI-60 cell line screen, 48 h.
For `COC(=O)[C@@H]1CCCN1CCN1CCC[C@H]1C(=O)OC`, the TGI was > 100 µM.
`CCOc1ccc(-c2nc(-c3oc4ccccc4c(=O)c3OC(C)=O)cs2)cc1` returned a TGI of 7.21 µM.
`NP(=O)(OCC1=CC(=O)c2ccccc2C1=O)N(CCBr)CCBr` (stereo not drawn) gave a TGI of 21.8 µM.

A further experiment concerns NCI-H23 lung. In words: NCI-60 cell line screen, 48 h.
Take `COC(=O)[C@@H]1CCCN1CCN1CCC[C@H]1C(=O)OC`: the TGI was > 100 µM.
`CCOc1ccc(-c2nc(-c3oc4ccccc4c(=O)c3OC(C)=O)cs2)cc1`: the TGI is > 10 µM.
Consider `CCOC(=O)c1ccc(N2C(=S)N(C(=O)c3ccccc3)C(=Nc3ccccc3)C2=Nc2ccccc2)cc1`, for which the TGI is > 100 µM.
Same read-out and setting: the same measure for `NP(=O)(OCC1=CC(=O)c2ccccc2C1=O)N(CCBr)CCBr` (stereo not drawn): 14.2 µM.

Another experiment concerns HCC-2998 colon. Kind of experiment: NCI-60 cell line screen, 48 h.
Turning to `CCOc1ccc(-c2nc(-c3oc4ccccc4c(=O)c3OC(C)=O)cs2)cc1`, the TGI was > 10 µM.
Regarding `CCOC(=O)c1ccc(N2C(=S)N(C(=O)c3ccccc3)C(=Nc3ccccc3)C2=Nc2ccccc2)cc1`, the TGI is > 100 µM.
`NP(=O)(OCC1=CC(=O)c2ccccc2C1=O)N(CCBr)CCBr` (stereo not drawn) yielded a TGI of 34.3 µM.

The subject of another experiment is NCI-H226 lung. Kind of experiment: NCI-60 cell line screen, 48 h.
In turn, `CCOC(=O)c1ccc(N2C(=S)N(C(=O)c3ccccc3)C(=Nc3ccccc3)C2=Nc2ccccc2)cc1` came in with a TGI of 52.7 µM.
`NP(=O)(OCC1=CC(=O)c2ccccc2C1=O)N(CCBr)CCBr` (stereo not drawn) returned a TGI of 25.8 µM.

The test system of a further experiment is A549 NSCLC. Kind of experiment: NCI-60 cell line screen, 48 h.
Regarding `COC(=O)[C@@H]1CCCN1CCN1CCC[C@H]1C(=O)OC`, the TGI was > 100 µM.
With `CCOc1ccc(-c2nc(-c3oc4ccccc4c(=O)c3OC(C)=O)cs2)cc1`, the TGI is > 10 µM.
Take `CCOC(=O)c1ccc(N2C(=S)N(C(=O)c3ccccc3)C(=Nc3ccccc3)C2=Nc2ccccc2)cc1`: the TGI was > 100 µM.
`NP(=O)(OCC1=CC(=O)c2ccccc2C1=O)N(CCBr)CCBr` (stereo not drawn) displayed a TGI of 26.5 µM.

For the next experiment, the system named is A498 renal. Kind of experiment: NCI-60 cell line screen, 48 h.
As for `COC(=O)[C@@H]1CCCN1CCN1CCC[C@H]1C(=O)OC`, the TGI is > 100 µM.
Turning to `NP(=O)(OCC1=CC(=O)c2ccccc2C1=O)N(CCBr)CCBr` (stereo not drawn), the TGI is 39.3 µM.

The subject of a further experiment is MDA-MB-231 breast. In words: NCI-60 cell line screen, 48 h.
`COC(=O)[C@@H]1CCCN1CCN1CCC[C@H]1C(=O)OC`: the TGI was > 100 µM.
